Assay results as given in the NIST ThermoML archive (doi:10.1021/acs.jced.9b00327).

Assay: mn = molality of the nth substance listed, in mol/kg
Conditions: 100 kPa, Liquid; for speed of sound: Single path-length method; for mass density: Vibrating tube method

NCCCC(=O)O [4-aminobutanoic acid] + O
Conditions	mass density [kg/m3]	speed of sound [m/s]
293.15 K, m1 = 0.09972	1000.99	1491.4
293.15 K, m1 = 0.1479	1002.31	1495.4
293.15 K, m1 = 0.1942	1003.57	1499.3
293.15 K, m1 = 0.2449	1004.94	1503.5
293.15 K, m1 = 0.2937	1006.23	1507.6
293.15 K, m1 = 0.3452	1007.58	1511.8
293.15 K, m1 = 0.3928	1008.82	1515.7
298.15 K, m1 = 0.09972	999.771	1505
298.15 K, m1 = 0.1479	1001.05	1508.9
298.15 K, m1 = 0.1942	1002.26	1512.7
298.15 K, m1 = 0.2449	1003.56	1516.8
298.15 K, m1 = 0.2937	1004.78	1520.7
298.15 K, m1 = 0.3452	1006.04	1524.8
298.15 K, m1 = 0.3928	1007.19	1528.7
303.15 K, m1 = 0.09972	998.354	1517
303.15 K, m1 = 0.1479	999.634	1520.8
303.15 K, m1 = 0.1942	1000.85	1524.4
303.15 K, m1 = 0.2449	1002.16	1528.4
303.15 K, m1 = 0.2937	1003.41	1532.2
303.15 K, m1 = 0.3452	1004.71	1536.2
303.15 K, m1 = 0.3928	1005.89	1539.9
308.15 K, m1 = 0.09972	996.682	1527.4
308.15 K, m1 = 0.1479	997.926	1531.1
308.15 K, m1 = 0.1942	999.104	1534.6
308.15 K, m1 = 0.2449	1000.37	1538.5
308.15 K, m1 = 0.2937	1001.56	1542.1
308.15 K, m1 = 0.3452	1002.8	1546
308.15 K, m1 = 0.3928	1003.92	1549.6
313.15 K, m1 = 0.09972	994.848	1536.3
313.15 K, m1 = 0.1479	996.089	1539.8
313.15 K, m1 = 0.1942	997.262	1543.2
313.15 K, m1 = 0.2449	998.525	1547
313.15 K, m1 = 0.2937	999.722	1550.5
313.15 K, m1 = 0.3452	1000.96	1554.3
313.15 K, m1 = 0.3928	1002.08	1557.8
318.15 K, m1 = 0.09972	992.851	1543.7
318.15 K, m1 = 0.1479	994.097	1547.1
318.15 K, m1 = 0.1942	995.285	1550.4
318.15 K, m1 = 0.2449	996.567	1554
318.15 K, m1 = 0.2937	997.781	1557.5
318.15 K, m1 = 0.3452	999.045	1561.1
318.15 K, m1 = 0.3928	1000.2	1564.5
